Values of other authors in US11293915B2, “Bio-adhesive gels and methods of use” (Cornell University, priority 2014, dated 2022).

Settings: DTT incorporated hydrogels, DTT concentrations up to 70 mM

**Q.** For `O[C@H](CS)[C@H](O)CS` (racemic) [DTT, dithiothreitol], which cytotoxicity is on record?
**A.** do not cause significant cytotoxicity
